The text below walks through data of patent publication US20110319352A1, “Compounds That Bind Oxysterol Binding Proteins, and Methods of Use Thereof” (President and Fellows of Harvard College, priority 2008, published 2011).

Each structure is given as a SMILES string.

Test [1] has as its system HeLa cells. Nature of the test: cell viability testing in HeLa cells. The test is classed as cell-based. How it is done:
Starting with OSW-1, derivatives of OSW-1 that maintained their antiproliferative activity were prepared.

Test [2] concerns U87-MG. The note with it: cited from earlier work.
The subject of test [3] is normal lymphocytes. The note with it: cited from earlier work.
Test [4] concerns OSBP protein levels. Nature of the test: OSBP protein levels by western blot. The test is classed as cell-based. How it is done: One unanticipated discovery from the IF studies was that, after several hours, CRAM treatment of cells caused a significant reduction in the intensity of the OSBP fluorescent signal. This could mean that CRAMs are inducing a reduction in OSBP protein levels: an effect not observed with 25-OHC. The amount of OSBP protein in cells exposed to CRAMs was measured by western blot. […] Cephalostatin 1 induced a 70% reduction in OSBP at 12 h, and OSW-1 caused a 69% reduction in OSBP at 24 h. […] This supports a situation where reduction of OSBP levels by 1 and 2 is a result of a proteasome-dependent degradation process. One possible scenario is that 1 and 2 are also causing protein level reductions of ORPs and this is the source of cytotoxicity of CRAMs.
A general note: Immunoblotting shows a protein as a band on a membrane.

Test [5] deals with T1, recombinant OSBP-myc-his (Homo sapiens, UniProt P22059).
T1 construct: made in house; host or cells: HEK-293T (crude S100 lysate, not purified)
T1 sequence (P22059 1-807): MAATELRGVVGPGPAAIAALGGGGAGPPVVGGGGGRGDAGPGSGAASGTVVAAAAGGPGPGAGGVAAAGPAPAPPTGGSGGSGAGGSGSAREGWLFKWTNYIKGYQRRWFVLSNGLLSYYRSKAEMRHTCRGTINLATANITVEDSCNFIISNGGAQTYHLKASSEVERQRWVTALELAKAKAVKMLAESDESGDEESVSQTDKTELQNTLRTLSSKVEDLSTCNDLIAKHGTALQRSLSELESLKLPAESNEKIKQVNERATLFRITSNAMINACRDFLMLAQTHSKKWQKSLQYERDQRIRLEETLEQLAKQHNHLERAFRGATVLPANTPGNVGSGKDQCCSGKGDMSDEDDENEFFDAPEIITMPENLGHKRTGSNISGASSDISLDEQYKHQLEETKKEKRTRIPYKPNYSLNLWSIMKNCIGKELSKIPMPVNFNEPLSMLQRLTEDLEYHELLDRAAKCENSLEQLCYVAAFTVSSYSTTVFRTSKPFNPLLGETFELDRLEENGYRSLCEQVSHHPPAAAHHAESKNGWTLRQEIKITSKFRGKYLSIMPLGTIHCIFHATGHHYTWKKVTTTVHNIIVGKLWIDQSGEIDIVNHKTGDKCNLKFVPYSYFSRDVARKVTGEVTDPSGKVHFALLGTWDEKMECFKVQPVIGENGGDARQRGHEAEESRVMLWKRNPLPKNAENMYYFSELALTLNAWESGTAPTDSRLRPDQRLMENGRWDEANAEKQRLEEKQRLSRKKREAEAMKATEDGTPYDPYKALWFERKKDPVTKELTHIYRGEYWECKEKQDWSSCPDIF
Kind of test: competitive binding assay, displacement of [3H]-25-OHC from OSBP (charcoal-dextran, liquid scintillation counting). The following applies: 20 nM [3H]-25-OHC, OSBP-myc-his S100 lysate (HEK-293T), 16 h at 4° C.; read-out: Ki, displacing OSBP-bound [3H]-25-OHC. The protocol:
It has been determined that CRAMs inhibit the binding of radiolabelled 25-OHC ([^3H]-25-OHC) to recombinant OSBP-myc-his and ORP4-myc-his overexpressed in HEK-293T lysate (FIG. 18). It is known that 25-hydroxycholesterol is a high affinity ligand for OSBP and ORP4. Increasing concentrations of CRAMs or OSW-1 analogs were incubated with 20 nM [^3H]-25-OHC in OSBP-myc-his or ORP4-myc-his S100 lysate for 16 h at 4° C. after which unbound sterol was removed using charcoal-dextran and the bound sterol quantified by LCS (liquid scintillation counting).
These experiments provide evidence that CRAMs are ligands of OSBP and ORP4, and in the case of 1 and 2, they are high affinity ligands.
To measure the Kis of CRAMs to OSBP and ORP4 reported above, a previously reported dextran-coated charcoal assay was adapted into a 96-well format. […] To solve these limitations a binding SPA (scintillation proximity assay) for OSBP/ORPs (FIG. 26) will be developed.
On the technique in general: Loss of bound radioactivity is the signal in a displacement assay; it reports binding, not function.

The test system of test [6] is HCT-116 p21−/− shNT and shOSBP cells. Kind of test: CRAM cytotoxicity after shRNA knockdown of OSBP, HCT-116 p21−/−. The class given is cell-based. The following applies: OSBP knocked down by 89% (FIG. 8).
Test [7] deals with T2, OSBP (Homo sapiens, UniProt P22059).
T2 construct: endogenous in cells; host or cells: HeLa (S-100 cytosol lysate)
Nature of the test: affinity chromatography (pulldown) from HeLa cell S-100 lysates. The test is classed as binding. The note with it: HeLa S-100 lysate, competition with soluble 15 μM OSW-1. The protocol:
FIG. 3 depicts the results of a OSW-1 pulldown experiment from HeLa cytosol. Protocol: (1) prepare S-100 HeLa cytosol lysate; (2) preincubate competition lysate with […] OSW-1 for 1 hr; (3) incubate […] of AB-9 and AB-11 Resin (˜16 mmol AB-9/mL resin) with 50 mg protein overnight; and (4) wash resin and elute in sample buffer.
Using active OSW-1 analog 6a, described above, sepharose-linked affinity reagent 6b was prepared, and affinity chromatography experiments using HeLa cell S-100 lysates were performed. […] Upon repeating the affinity chromatography experiment, only band 1, not bands 2 or 3, was enriched. […] [43] Subsequently lanes 1 and 2 were processed in their entirety to identify proteins competed in lane 2 that were not visible on the gel. […] No other CRAMs were tested in affinity chromatography competition experiments, but described below are direct binding studies between CRAMs and OSBP. Since OSBP is the most abundant of the OSBP/ORPs in cells, it was the most abundant OSBP/ORP from the pulldown, and because its biology is the best characterized, further experiments based upon OSBP were performed, as detailed below.

In test [8] the test system is pERK1/2 in HCT-116 cells. Nature of the test: Western blot of pERK1/2. The test is classed as cell-based. The following applies: cephalostatin 1 50 nM, 25-OHC 20 μM 12 h. The protocol:
FIG. 21 depicts Western blot and densitometry analysis of pERK1/2 in HCT-116 cells during treatment with 50 nM cephalostatin 1. 25-OHC (20 μM) and okadaic acid (OKA, 10 nM) treatments were for 12 h and 24 h, respectively.
As another test of whether CRAMs perturb a known OSBP function, it was determined whether CRAMs induce changes to the phosphorylation state of ERK1/2. As mentioned above, 25-OHC binds OSBP and causes disruption of a complex between OSBP and the phosphatases HePTP and PP2A. This blocks dephosphorylation of pERK1/2, leading to a persistence of pERK1/2. Opposing this effect is cholesterol, which binds OSBP, inducing formation of the OSBP-HePTP-PP2A ternary complex, causing ERK1/2 dephosphorylation (FIG. 13).

What is called GI50 is the concentration at which growth is held to half of that of the control. As a reminder, the Ki is a measure of affinity in units of concentration, obtained from inhibition or displacement. Consider `COc1ccc(C(=O)O[C@H]2[C@H](O[C@@H]3[C@@H](OC(C)=O)[C@H](O[C@H]4C[C@H]5[C@@H]6CC=C7C[C@@H](O)CC[C@]7(C)[C@H]6CC[C@]5(C)[C@@]4(O)[C@H](C)C(=O)CCC(C)C)OC[C@@H]3O)OC[C@@H](O)[C@@H]2O)cc1` [OSW-1], for which the GI50 in test [1] is 0.23 nM; in test [2], 0.047 nM; in test [3], 1.73 nM. Besides, the “selectivity, malignant brain tumor cells versus normal astrocytes” value in test [2] (U87-MG versus normal astrocytes) is listed as 150 fold. In test [4], the “effect on OSBP protein levels” value is “time-dependent reduction in OSBP protein levels”. Moreover, the “reduction in OSBP” value in test [4] (at 24 h) is reported as 69%. In addition, the inhibition constant (Ki) in test [5] is 21 nM. In addition, the “more sensitive after OSBP knockdown” value in test [6] amounted to 5.7 ×. For the same molecule, the “binding of OSBP in pulldown / competition” value in test [7] is “binds OSBP”. The pERK1/2 levels result in test [8] was “increase in pERK1/2 comparable to cephalostatin 1”.
